# According to patent US20110105436A1, “HETEROARYL COMPOUNDS, COMPOSITIONS, AND METHODS OF USE IN CANCER TREATMENT” (AUCKLAND UNISERVICES LIMITED, priority 2008, published 2011):
# Assays:
# [1] = system: RCC4/VHL cells; experiment: XTT assay, RCC4/VHL versus RCC4 cells (selectivity ratio); type: cell-based; conditions: selectivity ratio, IC50 in RCC4/VHL cells/IC50 in RCC4 cells
# Method: (§1) Cell Viability and XTT assays. For cell viability, 100,000 cells were plated in a 12-well plate. The following day, 1.25 μM STF-62247 was added in the presence or absence of 1 mM 3-MA for 24 hours at 37° C. Cells were trypsinized and counted by trypan blue exclusion. For XTT assays, 5000 RCC4 with and without VHL cells or 2,500 SN12C with and without VHL shRNA cells were plated in 96-well plates. The following day, vehicle (DMSO), STF-62247 or each of 19 analogs were added to media by serial dilution. Four days later, the media was aspirated and XTT solution containing 0.3 mg/ml of XTT (Sigma Chemical Co) in Phenol Red-free media, 20% FCS and 2.65 mg/ml N-methyl dibenzopyrazine methyl sulfate (PMS) was added to the cells and incubated at 37° C. for 1-2 hours. Metabolism of XTT was quantified by measuring the absorbance at 450 nm on a plate reader.
# A. RCC4 and RCC4/VHL were treated with 1.25 μM of each 19 analogs for 20 hours and the presence of vacuoles was examined under light microscopy. B. Western blot for LC3 after treatment with each compound. Tubulin was used as loading control. Ratio is the relative from the IC50 in RCC4/VHL cells/IC50 in RCC4 cells. C. Acidic vesicle organelles (AVO) measured by FACS analysis in cells treated with 1.25 μM of STF-62247 or with compounds 21, 15, 25, 47, and 53 and stained with acridine orange.
# [2] = system: RCC4 cells; experiment: XTT assay in VHL-deficient RCC4 cells; type: cell-based; conditions: Homo sapiens, 96 h, XTT assay, VHL-deficient RCC4 cells, four days
# Method: as §1
SMILES,Ratio ([1]; Table 1),IC50 ([2]; Table 1),Ratio ([1]; Table 2),IC50 ([2]; Table 2)
"Brc1cccc(Nc2nc(-c3ccncc3)cs2)c1 [Compound 123, N-(3-Bromophenyl)-4-(4-pyridinyl)-1,3-thiazol-2-amine]",>3.2,12.4 µM,–,–
"Cc1cccc(Nc2nc(-c3ccnc4ccccc34)cs2)c1 [Compound 192, N-(3-Methylphenyl)-4-(4-quinolinyl)-1,3-thiazol-2-amine]",–,–,1.6,12.3 µM
"Cc1cccc(Nc2nc(-c3ccncc3)c(CN(C)C)s2)c1 [Compound 83, 5-[(Dimethylamino)methyl]-N-(3-methylphenyl)-4-(4-pyridinyl)-1,3-thiazol-2-amine]",2.3,16 µM,–,–
"Cc1cccc(Nc2nc(-c3ccccn3)cs2)c1 [Compound 68, N-(3-Methylphenyl)-4-(2-pyridinyl)-1,3-thiazol-2-amine]",0.9,37 µM,–,–
"CC(=O)c1ccc(Nc2nc(-c3ccncc3)cs2)cc1 [Compound 131, 1-(4-{[4-(4-Pyridinyl)-1,3-thiazol-2-yl]amino}phenyl)ethanone]",3.1,3.8 µM,–,–
"OCc1sc(Nc2ccccc2)nc1-c1ccncc1 [Compound 73, [2-(Phenylamino)-4-(4-pyridinyl)-1,3-thiazol-5-yl]methanol]",>1.3,30 µM,–,–
"CN(C)CCc1ccc(Nc2nc(-c3ccncc3)cs2)cc1 [Compound 36, N-{4-[2-(Dimethylamino)ethyl]phenyl}-4-(4-pyridinyl)-1,3-thiazol-2-amine]",1.2,50 µM,–,–
"OCCc1ccc(Nc2nc(-c3ccncc3)cs2)cc1 [Compound 23, 2-(4-{[4-(4-Pyridinyl)-1,3-thiazol-2-yl]amino}phenyl)ethanol]",16,5 µM,–,–
"Cc1cccc(Nc2nc(-c3ccncc3)c(CO)s2)c1 [Compound 74, [2-[(3-Methylphenyl)amino]-4-(4-pyridinyl)-1,3-thiazol-5-yl]methanol]",2.4,7 µM,–,–
"Cc1cccc(Nc2nc(-c3ccncc3C#CCO)cs2)c1 [Compound 186, 3-(4-{2-[(3-Methylphenyl)amino]-1,3-thiazol-4-yl}-3-pyridinyl)-2-propyn-1-ol]",–,–,11.9,0.24 µM
"COc1cc(-c2csc(Nc3cccc(C)c3)n2)ccn1 [Compound 141, N-{4-[2-(Methyloxy)-4-pyridinyl]-1,3-thiazol-2-yl}-N-(3-methylphenyl)amine]",–,–,1.2,28.7 µM
"Cc1cccc(Nc2nc(-c3ccncc3)c(CCCO)s2)c1 [Compound 81, 3-[2-[(3-Methylphenyl)amino]-4-(4-pyridinyl)-1,3-thiazol-5-yl]-1-propanol]",3.7,3.6 µM,–,–
"Cc1cccc(Nc2nc(-c3ccncc3)c(CN3CCCCC3)s2)c1 [Compound 85, N-(3-Methylphenyl)-5-(1-piperidinylmethyl)-4-(4-pyridinyl)-1,3-thiazol-2-amine]",1.9,13 µM,–,–
"Cc1cccc(N(C)c2nc(-c3ccncc3)cs2)c1 [Compound 95, N-Methyl-N-(3-methylphenyl)-4-(4-pyridinyl)-1,3-thiazol-2-amine]",0.6,28 µM,–,–
"Cc1cccc(Nc2nc(-c3ccncc3Cl)cs2)c1 [Compound 174, 4-(3-Chloro-4-pyridinyl)-N-(3-methylphenyl)-1,3-thiazol-2-amine]",–,–,>13.8,2.9 µM
"Cc1cccc(Nc2nc(-c3ccnc(C#CCO)c3)cs2)c1 [Compound 161, 3-(4-{2-[(3-Methylphenyl)amino]-1,3-thiazol-4-yl}-2-pyridinyl)-2-propyn-1-ol]",–,–,1.6,9.3 µM
"Cc1cccc(Nc2nc(-c3ccnc(Cl)c3)cs2)c1 [Compound 150, 4-(2-Chloro-4-pyridinyl)-N-(3-methylphenyl)-1,3-thiazol-2-amine]",–,–,3.8,2.2 µM

SMILES,Ratio ([1]; Table 1),IC50 ([2]; Table 1),Ratio ([1]; Table 2),IC50 ([2]; Table 2)
"Cc1cccc(Nc2nc(-c3ccncc3C)cs2)c1 [Compound 166, N-(3-Methylphenyl)-4-(3-methyl-4-pyridinyl)-1,3-thiazol-2-amine]",–,–,>7.7,5.2 µM
CC(=O)Nc1cnccc1-c1csc(Nc2cccc(C)c2)n1 [Compound 183],–,–,1.0,33.3 µM
"Cc1cccc(Nc2nc(-c3ccnc(CCCO)c3)cs2)c1 [Compound 162, 3-(4-{2-[(3-Methylphenyl)amino]-1,3-thiazol-4-yl}-2-pyridinyl)-1-propanol]",–,–,>7.7,5.2 µM
"FC(F)(F)c1ccc(Nc2nc(-c3ccncc3)cs2)cc1 [Compound 133, 4-(4-Pyridinyl)-N-[4-(trifluoromethyl)phenyl]-1,3-thiazol-2-amine]",–,> 40 µM,–,–
"Cc1cccc(Nc2nc(-c3ccncc3CCCO)cs2)c1 [Compound 187, 3-(4-{2-[(3-Methylphenyl)amino]-1,3-thiazol-4-yl}-3-pyridinyl)-1-propanol]",–,–,>5.9,6.8 µM
"OCc1sc(Nc2ccc3c(c2)CCC3)nc1-c1ccncc1 [Compound 76, [2-(2,3-Dihydro-1H-inden-5-ylamino)-4-(4-pyridinyl)-1,3-thiazol-5-yl]methanol]",1.4,6.8 µM,–,–
"Cc1cccc(Nc2nc(-c3cc(Cl)nc(Cl)c3)cs2)c1 [Compound 158, N-[4-(2,6-Dichloro-4-pyridinyl)-1,3-thiazol-2-yl]-N-(3-methylphenyl)amine]",–,–,2.3,15 µM
"Cc1sc(Nc2ccc3c(c2)CCC3)nc1-c1ccncc1 [Compound 72, N-(2,3-Dihydro-1H-inden-5-yl)-5-methyl-4-(4-pyridinyl)-1,3-thiazol-2-amine]",1.5,12 µM,–,–
"Cc1cc(C)cc(Nc2nc(-c3ccncc3)cs2)c1 [Compound 45, N-(3,5-Dimethylphenyl)-4-(4-pyridinyl)-1,3-thiazol-2-amine]",>9,4.5 µM,–,–
"CCc1cc(-c2csc(Nc3cccc(C)c3)n2)ccn1 [Compound 160, 4-(2-Ethyl-4-pyridinyl)-N-(3-methylphenyl)-1,3-thiazol-2-amine]",–,–,>6.3,6.4 µM
"Cc1cccc(Nc2nc(-c3cc(-c4ccccc4)nc4ccccc34)cs2)c1 [Compound 194, N-(3-Methylphenyl)-4-(2-phenyl-4-quinolinyl)-1,3-thiazol-2-amine]",–,–,>1.6,25.4 µM
"CC(=O)c1cccc(Nc2nc(-c3ccncc3)cs2)c1 [Compound 125, 1-(3-{[4-(4-Pyridinyl)-1,3-thiazol-2-yl]amino}phenyl)ethanone]",>3.1,13 µM,–,–
"C#Cc1cc(-c2csc(Nc3cccc(C)c3)n2)ccn1 [Compound 159, 4-(2-Ethynyl-4-pyridinyl)-N-(3-methylphenyl)-1,3-thiazol-2-amine]",–,–,>2.2,17.8 µM
"Cc1ccc(Nc2nc(-c3ccncc3)c(CO)s2)cc1 [Compound 75, [2-[(4-Methylphenyl)amino]-4-(4-pyridinyl)-1,3-thiazol-5-yl]methanol]",1.2,14 µM,–,–
"Cc1cccc(Nc2nc(-c3cccnc3)cs2)c1 [Compound 65, N-(3-Methylphenyl)-4-(3-pyridinyl)-1,3-thiazol-2-amine]",–,> 40 µM,–,–
"Oc1ccc(Nc2nc(-c3cccnc3)cs2)cc1 [Compound 66, 4-{[4-(3-Pyridinyl)-1,3-thiazol-2-yl]amino}phenol]",–,> 40 µM,–,–
